Literature values, collected in publication PMC8400941, “Preclinical Toxicity and Safety of MM-129—First-in-Class BTK/PD-L1 Inhibitor as a Potential Candidate against Colon Cancer” (Pharmaceutics, 2021).

How the values were obtained:
[1] = set-up: method as in PMID 24079553; settings: cited from earlier work
patients = settings: chemotherapy regimens used in CRC; cited from earlier work
zebrafish embryos/larvae = settings: 5 μM; cited from earlier work
BFU-E growth = test system: BFU-E growth; set-up: method as in PMID 17318617; settings: multiple administration, 350 mg/kg/day, transient; cited from earlier work

CC[C@H](CO)Nc1nc(NCc2ccc(-c3ccccn3)cc2)c2ncn(C(C)C)c2n1 [CR8]
elimination half-life [1]: about 3 h

O=c1[nH]cc(F)c(=O)[nH]1 [5-FU, 5-fluorouracil]
patients with hepatotoxicity (patients): up to 47%

CC[C@H](CO)Nc1nc(NCc2ccccc2)c2ncn(C(C)C)c2n1 [seliciclib]
embryos with absence of swimming activity, lack of heartbeat and tail blood flow (zebrafish embryos/larvae): 57% | larvae with curved body (zebrafish embryos/larvae): 50% | larvae with edema (both mild and severe) (zebrafish embryos/larvae): 82% | BFU-E growth, of the controls (BFU-E growth): less than 50%
